PMC11201714, “Insights into the Effects of Ligand Binding on Leucyl-tRNA Synthetase Inhibitors for Tuberculosis: In Silico Analysis and Isothermal Titration Calorimetry Validation” (Biomolecules, 2024)
In brackets after ≈: the same amount, converted by molar mass.

Legend:
[1] = test system: Wild-type Mycobacterium tuberculosis biofilm; test: Inhibition of mycobacterial biofilm formation (crystal violet)
[2] = test system: Mycobacterium tuberculosis strain H37Rv (ATCC 25618); test: Antimycobacterial activity, well diffusion method; assay type: cell-based; details: LJM agar, 6 weeks; for MIC: Mycobacterium tuberculosis
[3] = target: T1, leucyl t-RNA synthetase (LeuRS) (Mycobacterium tuberculosis, UniProt P9WFV1); test: biochemical; assay type: binding; details: for Binding Enthalpy ΔH / Kd: ITC; for Kd: pH 7.0, read-out: Floating Association Constant ka (converted)
T1 construct: purchased Sigma-Aldrich
T1 sequence (P9WFV1 whole entry): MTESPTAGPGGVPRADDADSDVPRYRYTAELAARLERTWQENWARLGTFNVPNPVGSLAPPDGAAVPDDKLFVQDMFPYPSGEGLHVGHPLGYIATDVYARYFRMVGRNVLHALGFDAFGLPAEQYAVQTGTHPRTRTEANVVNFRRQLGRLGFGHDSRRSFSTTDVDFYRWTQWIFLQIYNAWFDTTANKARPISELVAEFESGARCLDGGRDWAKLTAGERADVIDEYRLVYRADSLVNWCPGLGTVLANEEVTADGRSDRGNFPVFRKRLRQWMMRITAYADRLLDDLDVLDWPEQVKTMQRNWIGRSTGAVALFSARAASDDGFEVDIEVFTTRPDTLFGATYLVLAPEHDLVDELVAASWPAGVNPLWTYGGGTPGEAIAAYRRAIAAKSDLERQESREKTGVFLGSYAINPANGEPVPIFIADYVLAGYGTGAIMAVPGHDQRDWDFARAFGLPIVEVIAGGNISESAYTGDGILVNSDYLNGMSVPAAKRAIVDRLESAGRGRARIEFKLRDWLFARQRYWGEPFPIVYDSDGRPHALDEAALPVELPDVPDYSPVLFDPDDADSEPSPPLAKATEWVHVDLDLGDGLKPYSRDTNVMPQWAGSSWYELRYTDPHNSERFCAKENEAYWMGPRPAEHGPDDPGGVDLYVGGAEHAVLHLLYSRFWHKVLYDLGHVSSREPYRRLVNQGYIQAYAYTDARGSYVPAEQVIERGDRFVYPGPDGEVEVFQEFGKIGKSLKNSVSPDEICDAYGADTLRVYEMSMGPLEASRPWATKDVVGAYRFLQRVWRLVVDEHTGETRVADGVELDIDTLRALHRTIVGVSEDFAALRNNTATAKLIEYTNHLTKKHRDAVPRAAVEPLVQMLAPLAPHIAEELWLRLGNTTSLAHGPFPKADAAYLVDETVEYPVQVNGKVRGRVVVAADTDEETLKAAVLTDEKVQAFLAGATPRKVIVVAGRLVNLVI

[4] = test system: Leucyl-tRNA synthetase mRNA; test: Leucyl t-RNA synthetase gene expression inhibition (qPCR); assay type: cell-based; details: A549 cells, 25 µL (10 mM) overnight, RT-PCR, in words
[5] = Conc. of Ligand/Protein 0.0125 µM
[6] = Conc. of Ligand/Protein 0.025 µM
[7] = Conc. of Ligand/Protein 0.050 µM
[8] = Conc. of Ligand/Protein 0.100 µM
[9] = Conc. of Ligand/Protein 0.200 µM
[10] = Conc. of Ligand/Protein 0.400 µM
[11] = Conc. of Ligand/Protein 0.800 µM
[12] = Conc. of Ligand/Protein 1.600 µM
[13] = Conc. of Ligand/Protein 3.20 µM
[14] = Conc. of Ligand/Protein 5.00 µM

Row | Structure (SMILES) | OD (biofilm formation) ([1]; Conc. 5.0 (unit not given)) | OD (biofilm formation) ([1]; Conc. 10.0 (unit not given)) | OD (biofilm formation) ([1]; Conc. 15.0 (unit not given)) | OD (biofilm formation) ([1]; Conc. 20.0 (unit not given)) | OD (biofilm formation) ([1]; Conc. 25.0 (unit not given)) | Zone of Inhibition [2] [mm] | MIC [2] [µg/mL] | ΔH for Ligands ([3]; Conc. of Ligand/Protein 00 µM) [kcal/mol] | ΔH for Ligands [3, 5] [kcal/mol] | ΔH for Ligands [3, 6] [kcal/mol] | ΔH for Ligands [3, 7] [kcal/mol] | ΔH for Ligands [3, 8] [kcal/mol] | ΔH for Ligands [3, 9] [kcal/mol] | ΔH for Ligands [3, 10] [kcal/mol] | ΔH for Ligands [3, 11] [kcal/mol] | ΔH for Ligands [3, 12] [kcal/mol] | ΔH for Ligands [3, 13] [kcal/mol] | ΔH for Ligands [3, 14] [kcal/mol] | Binding Enthalpy ΔH ([3]; 25 °C, pH 7.0, fitted) [kcal/mol] | Kd ([3]; 25 °C) [µM] | further results
1 | CC(C)(N)C(=O)N[C@H](Cc1c[nH]c2ccccc12)C(=O)N[C@H](Cc1c[nH]c2ccccc12)NC=O [Compound 1054, 2-amino-N-((R)-1-(((R)-1-formamido-2-(1H-indol-3-yl)ethyl)amino)-3-(1H-indol-3-yl)-1-oxopropan-2-yl)-2-methylpropanamide] | 0.5428 | 0.4548 | 0.3425 | 0.2186 | 0.1254 | 18.45 ± 0.19 | 186.4 ± 0.21 (≈ 393 µM) | -19.62 | -18.2 | -16.31 | -14.37 | -12.49 | -9.859 | -7.106 | -4.89 | -3.145 | -2.49 | 0 | -11.53 | 0.158 | biofilm formation inhibitory activity ([1]; in words, compared to control / other compounds): higher inhibition in biofilm formation; Binding Enthalpy ΔH [3]: -48.23 kL/mol; LeuRS gene expression (copies of mRNA per cycle) [4]: more effective in down-regulating the LeuRS gene
2 | NCC[C@H](O)C(=O)N[C@@H]1C[C@H](N)[C@@H](O[C@H]2O[C@H](CN)[C@@H](O)[C@H](O)[C@H]2O)[C@H](O)[C@H]1O[C@H]1O[C@H](CO)[C@@H](O)[C@H](N)[C@H]1O [Compound 2077, (S)-4-amino-N-((1R,2S,3S,4R,5S)-5-amino-2-(((2S,3R,4S,5S,6R)-4-amino-3,5-dihydroxy-6-(hydroxymethyl)tetrahydro-2H-pyran-2-yl)oxy)-4-(((2R,3R,4S,5S,6R)-6-(aminomethyl)-3,4,5-trihydroxytetrahydro-2H-pyran-2-yl)oxy)-3-hydroxycyclohexyl)-2-hydroxybutanamide] | 0.7588 | 0.5358 | 0.3585 | 0.2544 | 0.1456 | 15.57 ± 0.80 | 147.4 ± 0.8 (≈ 252 µM) | -20.11 | -19.15 | -17.64 | -14.67 | -13.18 | -9.9 | -7.469 | -4.818 | -3.215 | -2.476 | 0 | -11.92 | 129 | 
3 | CC(C)C(N)C(=O)OCC(CO)OCn1cnc2c(=O)[nH]c(N)nc21 (stereo not drawn) [Compound 1035, 2-((2-amino-6-oxo-1H-purin-9(6H)-yl)methoxy)-3-hydroxypropyl 2-amino-3-methylbutanoate] | 0.7685 | 0.6255 | 0.5454 | 0.3256 | 0.1854 | 13.68 ± 0.21 | 119.87 ± 0.1 (≈ 338 µM) | -20.76 | -19.51 | -18.06 | -15.16 | -13.83 | -10.49 | -8.164 | -5.521 | -3.884 | -3.023 | 0 | -11.75 | 23.9 | 
4 | OB1OCc2cc(F)ccc21 [AN2690] | 0.4256 | 0.3658 | 0.2452 | 0.2048 | 0.0980 |  |  |  |  |  |  |  |  |  |  |  |  |  |  |  | LeuRS gene expression (copies of mRNA per cycle) [4]: lower copies of LeuRS
